Assays:
[1] = system: wild-type C57BL/6 mice; assay: Scratching behavior induced by IL-31 after NK3R antagonist administration; format: in vivo, mouse; conditions: 45 minutes before intradermal IL-31 (1 μg/50 μl)
Experimental: (§1) Prior to the experiments, mice were placed in an acrylic cage (11 cm×14 cm×20 cm) for at least 1 hour to acclimatize to the environment. Subsequently, 50 μL of a pruritus-inducing substance dissolved in sterilized physiological saline was injected intradermally into shoulders of the mice, and the behavior of these mice was videotaped. The total number of scratching behavior within a specified time was determined by playing the video. During the scratching behavior of a mouse, the mouse extends its hind leg to the itchy area, tilts its head toward the hind leg, quickly turns the hind leg several times, and returns the hind leg to the ground. These series of actions were counted as one scratching behavior. As pruritus-inducing substances. IL-31 (1 μg/50 μl; PeproTech Inc.). SLIGRL-NH2 (100 μg/50 μl; Bachem Holding AG), chloroquine (100 μg/50 μl; Wako Pure Chemical Industries.), and histamine (100 μg/50 μl; Wako Pure Chemical Industries.) were used.
(§2) In some experiments, the actions of NK3R antagonists on the scratching behavior of the mice were investigated. As compounds having activity as an NK3R antagonist or an NK3R antagonist, osanetant (Axon Medchem.), talnetant (NAMIKI SHOJI Co., Ltd.), pavinetant (NAMIKI SHOJI Co., Ltd.), fezolinetant (Haoyuan Chemexpress Co., Ltd.). SSR-146977 (Tocris Bioscience.), SSR-241586 (WuXi AppTec New Drug Development Co. Ltd.), SB-235375 (WuXi AppTec New Drug Development Co. Ltd.), and CS-003 (WuXi AppTec New Drug Development Co. Ltd.) were used. These compounds were administered to the mice in a predetermined amount per weight of each mouse 45 minutes before the intradermal injection of the pruritus-inducing substance. Osanetant was dissolved in phosphate buffered saline (PBS) containing 0.1% Tween-20 and intraperitoneally injected at 5 mg/kg. Talnetant and pavinetant were dissolved in a mixture of 10% dimethyl sulfoxide (DMSO), 40% polyethylene glycol 300, 5% Tween-80, and 45% saline and were intraperitoneally injected at 30 mg/kg. Fezolinetant was dissolved in PBS containing 10% DMSO and orally administered at 10 mg/kg. SSR-146977 was dissolved in PBS containing 0.1% ethanol and intraperitoneally injected at 0.3 mg/kg. SSR-241586 was dissolved in a 0.01% Tween-80 aqueous solution and intraperitoneally injected at 3 mg/kg. SB-235375 was dissolved in PBS and orally administered at 3 mg/kg. CS-003 was dissolved in PBS containing 5% glucose and intravenously injected at 3 mg/kg.
(§3) Similar to osanetant, fezolinetant that is a selective antagonist of NK3R was orally administered to wild-type C57BL/6 mice, and the effect on the scratching behavior induced by IL-31, histamine, or chloroquine was analyzed.
(§4) Furthermore, CS-003 that is an antagonist to neurokinin 3 receptor (NK3R) and also an antagonist to neurokinin 1 receptor (NK1R) and neurokinin 2 receptor (NK2R), and SSR-241586 that is an antagonist to NK3R and NK2R were administered to wild-type C57BL/6 mice, and then the effects of the compounds on the scratching behavior induced by IL-31 or chloroquine were analyzed.

[2] = system: wild-type C57BL/6 mice; assay: Scratching behavior induced by chloroquine after NK3R antagonist administration; format: in vivo, mouse; conditions: 45 minutes before intradermal chloroquine (100 μg/50 μl)
Experimental: as §1, §2, §3, §4

[3] = system: wild-type C57BL/6 mice; assay: Scratching behavior induced by histamine after NK3R antagonist administration; format: in vivo, mouse; conditions: 45 minutes before intradermal histamine (100 μg/50 μl)
Experimental: as §1
In some experiments, the actions of NK3R antagonists on the scratching behavior of the mice were investigated. […]
as §3

[4] = system: Tac2−/− (Δ4) mice; assay: Scratching behavior after injecting NKB into medullary cavities; format: in vivo, mouse; conditions: FIG. 10(a)
Experimental: Next, in order to identify the site where NKB was functioning. NKB was injected into medullary cavities of Tac2^−/− (Δ4) mice, and scratching behavior was analyzed.

[5] = system: Nppb mRNA; assay: Nppb mRNA expression in stimulated DRG neurons in vitro; format: cell-based, mouse; conditions: DRG neurons from wild-type C57BL/6 mice stimulated with NKB in vitro; FIG. 4(b)
Experimental: (§5) Total RNAs were extracted from each tissue using ISOGEN (NIPPON GENE CO., LTD.). Total RNAs were treated with RNase-free DNase I (Thermo Fisher Scientific K.K.). This RNA sample was reverse transcribed using an oligo (dT) primer (v) and SuperScript III reverse transcriptase (Thermo Fisher Scientific K.K.), and amplified by PCR. Real-time PCR was performed by Cfx Connect™ Thermal Cycler (Bio-Rad Laboratories, Inc.) using SYBR Green PCR Master Mix (Applied Biosystems). The expression level of the target gene was normalized by an expression level of Hprt gene. For the analysis, CFX Manager (ver3.1) attached to a device was used.
(§6) Changes in the expression levels of Tac2, Grp. and Nppb through administration of IL-31 or NKB were analyzed. First. DRG neurons isolated from the wild-type C57BL/6 mice were stimulated by the addition of the IL-31 protein in vitro, and the expression levels of Tac2 mRNA, Grp mRNA, and Nppb mRNA were analyzed.
(§7) Next, DRG neurons isolated from the wild-type C57BL/6 mice were stimulated by neurokinin B (NKB) in vitro, and the expression levels of Grp mRNA and Nppb mRNA were analyzed.

[6] = system: Grp mRNA; assay: Grp mRNA expression in stimulated DRG neurons in vitro; format: cell-based, mouse; conditions: DRG neurons from wild-type C57BL/6 mice stimulated with NKB in vitro; FIG. 4(b)
Experimental: as §5, §6, §7

[7] = SSR-241586 3 mg/kg intraperitoneal, CS-003 3 mg/kg intravenous, FIGS. 16(a), 17(a)
[8] = 30 mg/kg intraperitoneal, FIGS. 13(a), 14(a)
[9] = 30 mg/kg intraperitoneal, FIGS. 13(b), 14(b)

Which “frequency of scratching behavior induced by IL-31” value [1, 7] does the source give for `COc1cc(C(=O)N2CCO[C@](CCN3CCC4(CC3)c3ccccc3C[S@+]4[O-])(c3ccc(Cl)c(Cl)c3)C2)cc(OC)c1OC` [CS-003] here?
Its value is “suppressed”.

For `CC[C@H](NC(=O)c1c(OCC(=O)O)c(-c2ccccc2)nc2ccccc12)c1ccccc1` [SB-235375, 2-[2-phenyl-4-[N-[1 (S)-phenylpropyl]carbamoyl]quinoline-3-yloxy]acetic acid], which “frequency of scratching behavior induced by IL-31” value ([1]; 3 mg/kg oral, FIG. 18(a)) is on record?
Its value is “did decrease”.

What about the “frequency of scratching behavior by chloroquine” value (from here on “frequency … by chloroquine”) ([2]; 3 mg/kg oral, FIG. 18(b)) of the same compound?
The value was “did not decrease”.

Which “frequency of scratching behavior induced by IL-31” value [1, 7] does the source give for `CN(C)C(=O)C1(N2CCCCC2)CCN(CC[C@@]2(c3ccc(Cl)c(Cl)c3)CN(C(=O)c3ccccc3)CCO2)CC1` [SSR-241586, (+)-1′-[2-[4-benzoyl-2(R)-(3,4-dichlorophenyl)morpholine-2-yl]ethyl]-N,N-dimethyl-1,4′-bipiperidin-4′-carboxamide] here?
Its value is “suppressed”.

How did the “frequency of scratching behavior by IL-31” value ([1]; fezolinetant 10 mg/kg oral, FIG. 12(a)) turn out when `Cc1nsc(-c2nnc3n2CCN(C(=O)c2ccc(F)cc2)[C@@H]3C)n1` [fezolinetant, (4-fluorophenyl)-[(8R)-8-methyl-3-(3-methyl-1,2,4-thiadiazole-5-yl)-6,8-dihydro-5H-[1,2,4]triazolo[4,3-a]pyrazine-7-yl]-methanone] was run?
The value was “decreased”.

And the “frequency … by chloroquine” value ([2]; fezolinetant 10 mg/kg oral, FIG. 12(c))?
The value was “did not decrease”.

What about the “frequency of scratching behavior by histamine” value ([3]; fezolinetant 10 mg/kg oral, FIG. 12(b)) of the same compound?
Its value is “did not decrease”.

Which results are given for `CC(=O)N(C)C1(c2ccccc2)CCN(CCC[C@]2(c3ccc(Cl)c(Cl)c3)CCCN(C(=O)c3ccccc3)C2)CC1` [osanetant, N-[1-[3-[(3R)-1-benzoyl-3-(3,4-dichlorophenyl)piperidine-3-yl)propyl)-4-phenylpiperidine-4-yl]-N-methyl acetamide]?
frequency of scratching behavior by IL-31 ([1]; osanetant 5 mg/kg intraperitoneal, FIG. 11(c)): decreased; frequency of scratching behavior by chloroquine ([2]; osanetant 5 mg/kg intraperitoneal, FIG. 11(e)): did not decrease; frequency of scratching behavior by histamine ([3]; osanetant 5 mg/kg intraperitoneal, FIG. 11(d)): did not decrease

What does the source list for `CC[C@H](NC(=O)c1c(NS(C)(=O)=O)c(-c2ccccc2)nc2ccccc12)c1ccccc1` [pavinetant]?
frequency of scratching behavior induced by IL-31 [1, 8]: did decrease; frequency of scratching behavior by chloroquine [2, 9]: did not decrease

How did the “frequency of scratching behavior induced by IL-31” value [1, 8] turn out when `CC[C@H](NC(=O)c1c(O)c(-c2ccccc2)nc2ccccc12)c1ccccc1` [talnetant, N-(α-ethylbenzyl)-3-hydroxy-2-phenylquinoline-4-carboxamide] was run?
Its value is “did decrease”.

What about the “frequency … by chloroquine” value [2, 9] of the same compound?
The value was “did not decrease”.

Which “scratching behavior after intramedullary injection of NKB” value [4] does the source give for “NKB: mature neurokinin B, neuropeptide from PPT-3 (Tac2 gene), SEQ ID NO: 2; binds neurokinin receptor 3 (DMHDFFVGLM; listed as Homo sapiens)” here?
The value was “induced the scratching behavior”.

What about the “expression level of Nppb mRNA” value [5] of the same compound?
The value was “increased”.

What about the “expression level of Grp mRNA” value [6] of the same compound?
Its value is “increased”.
